In US20160046592A1, “PHARMACEUTICAL COMPOSITION FOR THE TREATMENT OF DIABETES” (Ajinomoto Co., Inc., priority 2013, published 2016):
Counter-ions that a name gives are not always drawn.

Target: T1, human GYS1 (glycogen synthase) (Homo sapiens, UniProt P13807)
T1 construct: made in house; host or cells: HEK293T
T1 sequence (P13807 1-737): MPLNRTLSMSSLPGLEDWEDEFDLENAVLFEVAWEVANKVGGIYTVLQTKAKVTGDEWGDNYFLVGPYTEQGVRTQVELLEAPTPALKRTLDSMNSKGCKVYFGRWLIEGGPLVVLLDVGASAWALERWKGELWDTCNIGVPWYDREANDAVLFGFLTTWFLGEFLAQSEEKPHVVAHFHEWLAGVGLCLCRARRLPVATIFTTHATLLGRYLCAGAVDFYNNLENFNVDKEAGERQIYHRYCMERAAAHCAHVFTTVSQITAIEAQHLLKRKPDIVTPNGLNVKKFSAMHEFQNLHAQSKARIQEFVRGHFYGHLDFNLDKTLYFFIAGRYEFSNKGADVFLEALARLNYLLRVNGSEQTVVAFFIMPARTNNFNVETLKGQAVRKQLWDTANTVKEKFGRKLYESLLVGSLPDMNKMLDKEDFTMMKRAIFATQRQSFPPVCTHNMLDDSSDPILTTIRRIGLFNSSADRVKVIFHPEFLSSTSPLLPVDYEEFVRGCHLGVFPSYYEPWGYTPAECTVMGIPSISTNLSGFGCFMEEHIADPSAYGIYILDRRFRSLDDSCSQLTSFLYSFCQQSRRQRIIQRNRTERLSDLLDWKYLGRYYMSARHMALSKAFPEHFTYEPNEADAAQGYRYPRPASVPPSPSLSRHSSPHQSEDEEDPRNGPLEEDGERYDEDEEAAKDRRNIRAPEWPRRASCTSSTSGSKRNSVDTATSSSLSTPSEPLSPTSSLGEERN
Assay: Measurement of glycogen synthase activity
Format: biochemical
Settings: concentration causing 50% increase in relative activity; 100% = compound of Example 1 of WO/2011/058154 at 10 μM; 10 mM Glucose-6-phosphate; 37° C. for 25 minutes (Examples 1 to 61 and 67 to 82) or 20 minutes (Examples 62 to 66); absorbance at 340 nm
Procedure: A human GYS1 expression plasmid (pCDNA3.1(+)-hGYS1) was constructed by the following method. By using a human skeletal muscle cDNA of Human MTC Panel I (Takara Bio Inc., 636742) as a template, a human GYS1 gene was amplified by a PCR method using cloning primers (Forward Primer: ATGCCTTTAAACCGCAC, Reverse Primer: TTAGTTACGCTCCTCGC). By using the amplified human GYS1 sequence as a template, restriction enzyme sequences were added by a PCR method using sub-cloning primers (Forward Primer: […], and Reverse Primer: […]), and then the human GYS1 gene was introduced between Xho I and Xba I sites of pCDNA3.1(+) (Invitrogen, V790-20).
Glycogen synthase was prepared by the following method. Human kidney-derived HEK293T cells were seeded in a dish (Thermo Fisher Scientific K.K., 168381) by using a 10% FBS-containing DMEM (Nacalai Tesque, Inc., 0845874) medium, and cultured overnight. Then, by using Lipofectamine LTX (Invitrogen, 15338-100), the cells were transfected with the human GYS1 expression vector according to the attached manual. After culturing under conditions of 37° C. and 5% CO2 for 2 days, the resultant was lysed in a lysis buffer (50 mM Tris-HCl (pH 8.0), 10 mM EDTA, 2 mM EGTA, 100 mM NaF, 1 mM PMSF, 1 mM DTT, and 1× Complete (Roche, 1873580)), homogenized, and then centrifuged at 16000×g at 4° C. for 15 minutes. The precipitated fraction re-dissolved by adding the lysis buffer was used as a glycogen synthase for evaluation.
The glycogen synthase activity was measured by the following method. To a polystyrene 96-well plate, solutions each containing 30 mM glycylglycine (pH 7.3), 40 mM KCl, 20 mM MgCl2, 9.2% DMSO containing one of the test compounds at one of various concentrations, and 10 mM Glucose-6-phosphate (Sigma-Aldrich, G7879) were added at 12 μL/well.
Next, a substrate solution containing 30 mM glycylglycine (pH 7.3), 4.3 mg/mL glycogen (Sigma-Aldrich, G8876), 21.6 mM UDP-glucose (Sigma-Aldrich, U4625), 21.6 mM phosphoenolpyruvic acid (Sigma-Aldrich, P0564), and 4.05 mM NADH (Sigma-Aldrich, N8129) was added at 18 μL/well.
Moreover, an enzyme solution containing 50 mM Tris-HCl (pH 8.0), 27 mM DTT (NACALAI TESQUE, INC., 14128-04), 0.2 mg/mL bovine serum albumin, 0.17 mg/mL glycogen synthase, and 1.5 μL pyruvate kinase/lactate dehydrogenase solution (Sigma-Aldrich, P0294) was added at 18 μL/well to prepare reaction solutions. After the reaction solutions were incubated (at 37° C. for 25 minutes for Examples 1 to 61 and 67 to 82 or at 37° C. for 20 minutes for Examples 62 to 66), the absorbance at 340 nm was measured by using Benchmark Plus (Bio-Rad Laboratories, Inc.).
The activity of each test compound was calculated by the following method. The absorbance at 340 nm of the reaction solution containing the compound and DMSO was subtracted from the absorbance at 340 nm of a reaction solution not containing the compound but containing only DMSO to calculate the change (ΔA340) in absorbance. The relative activity (%) of the test compound at each of the various concentrations was calculated, where the ΔA340 of a reaction solution containing the compound of Example 1 of WO/2011/058154 at a final concentration of 10 μM was taken as 100%. EC50 representing the concentration of the compound at which an increase in the relative activity by 50% was caused was calculated using XLfit (idbs).

SMILES	EC50 [nM]
CSc1cc(F)c(F)cc1-c1ccc(OCc2cccc(C(=O)N3CC[C@H](O)[C@H]3C(=O)O)c2)cc1 [Example 5, (2S,3S)-1-[3-[[4-(4,5-Difluoro-2-methylsulfanyl-phenyl)phenoxy]methyl]benzoyl]-3-hydroxy-pyrrolidine-2-carboxylic Acid]	< 10
CSc1cc(F)c(F)cc1-c1ccc(OCc2cccc(C(=O)N(CCn3cncn3)CC(=O)O)c2)cc1 [Example 70, 2-[[3-[[4-(4,5-Difluoro-2-methylsulfanyl-phenyl)phenoxy]methyl]benzoyl]-[2-(1,2,4-triazol-1-yl)ethyl]amino]acetic Acid]	21
CSc1cc(F)c(F)cc1-c1ccc(OCc2cccc(C(=O)N(CC(=O)O)[C@@H](C)C(N)=O)c2)cc1 [Example 22, 2-[[(1S)-2-Amino-1-methyl-2-oxo-ethyl]-[3-[[4-(4,5-difluoro-2-methylsulfanyl-phenyl)phenoxy]methyl]benzoyl]amino]acetic Acid]	13
CNC(=O)CN(CC(=O)O)C(=O)c1cccc(COc2ccc(-c3cc(F)c(F)c4ccoc34)cc2)c1 [Example 15, 2-[[3-[[4-(4,5-Difluorobenzofuran-7-yl)phenoxy]methyl]benzoyl]-[2-(methylamino)-2-oxo-ethyl]amino]acetic Acid]	13
O=C(O)[C@@H]1[C@H](O)CCN1C(=O)c1cccc(COc2ccc(-c3cc(F)c(F)c4ccoc34)cc2)c1 [Example 3, (2S,3R)-1-[3-[[4-(4,5-Difluorobenzofuran-7-yl)phenoxy]methyl]benzoyl]-3-hydroxy-pyrrolidine-2-carboxylic Acid]	16
COC[C@H](C)N(CC(=O)O)C(=O)c1cccc(COc2ccc(-c3cc(F)c(F)c4ccoc34)cc2)c1 [Example 80, 2-[[3-[[4-(4,5-Difluorobenzofuran-7-yl)phenoxy]methyl]benzoyl]-[(1S)-2-methoxy-1-methyl-ethyl]amino]acetic Acid]	24
CSc1cc(F)c(F)cc1-c1ccc(OCc2cccc(C(=O)N(CCC#N)CC(=O)O)c2)cc1 [Example 7, 2-[2-Cyanoethyl-[3-[[4-(4,5-difluoro-2-methylsulfanyl-phenyl)phenoxy]methyl]benzoyl]amino]acetic Acid]	11
NC(=O)C1CC[C@@H](C(=O)O)N1C(=O)c1cccc(COc2ccc(-c3cc(F)c(F)c4ccoc34)cc2)c1 (single isomer, unassigned) [Example 4, (2S,5R) or (2S,5S)-5-Carbamoyl-1-[3-[[4-(4,5-difluorobenzofuran-7-yl)phenoxy]methyl]benzoyl]pyrrolidine-2-carboxylic Acid]	< 3
COCCN(CC(=O)O)C(=O)c1cccc(COc2ccc(-c3cc(F)c(F)cc3SC)cc2)c1 [Example 6, 2-[[3-[[4-(4,5-Difluoro-2-methylsulfanyl-phenyl)phenoxy]methyl]benzoyl]-(2-methoxyethyl)amino]acetic Acid]	17
NC(=O)CN(CC(=O)O)C(=O)c1cccc(COc2ccc(-c3cc(F)c(F)c4ccoc34)cc2)c1 [Example 1, 2-[(2-Amino-2-oxo-ethyl)-[3-[[4-(4,5-difluorobenzofuran-7-yl)phenoxy]methyl]benzoyl]amino]acetic Acid]	13
CSc1cc(F)c(F)cc1-c1ccc(OCc2cccc(C(=O)N(CC(=O)O)Cc3cscn3)c2)cc1 [Example 71, 2-[[3-[[4-(4,5-Difluoro-2-methylsulfanyl-phenyl)phenoxy]methyl]benzoyl]-(thiazol-4-ylmethyl)amino]acetic Acid]	17
CSc1cc(F)c(F)cc1-c1ccc(OCc2cccc(C(=O)N(CC(=O)O)CC3CCN(C)CC3)c2)cc1 [Example 37, 2-[[3-[[4-(4,5-Difluoro-2-methylsulfanyl-phenyl)phenoxy]methyl]benzoyl]-[(1-methyl-4-piperidyl)methyl]amino]acetic Acid Trifluoroacetate]	23
COC(C)CN(CC(=O)O)C(=O)c1cccc(COc2ccc(-c3cc(F)c(F)cc3SC)cc2)c1 (stereo not shown) [Example 45, 2-[[3-[[4-(4,5-Difluoro-2-methylsulfanyl-phenyl)phenoxy]methyl]benzoyl]-(2-methoxypropyl)amino]acetic Acid]	7.7
